Measured values published in US20250154152A1, “INHIBITORS OF NAEGLERIA FOWLERI” (Wisconsin Alumni Research Foundation, priority 2023, published 2025).

Test system: N. fowleri strain Nf69 (ATCC 30215) trophozoites
Assay: Determination of EC50 values against Naegleria fowleri (growth inhibition, CellTiter Glo, 48 h)
Format: cell-based
Conditions: ATCC30215, N. fowleri Nf69 trophozoites, 48 h culture, 37° C., CellTiter Glo luminescence, read-out: EC50 uM against N. fowleri
Procedure: N. fowleri strain Nf69 (ATCC 30215) trophozoites were cultured axenically. Amoeba were seeded at […] in 100 μL of the indicated medium in white TC-treated 96-well plates (Thermo Scientific Nunc Microwell 136101). Cells were seeded into Nelson's Complete Media (NCM, 0.17% liver infusion broth (BD Difco, Franklin Lakes, NJ), 0.17% glucose, 0.012% sodium chloride, 0.0136% potassium phosphate monobasic, 0.0142% sodium phosphate dibasic, 0.0004% calcium chloride, 0.0002% magnesium sulfate, 10% heat-inactivated fetal bovine serum (FBS), 1% penicillin-streptomycin) at 37° C. in 96-well tissue culture plates. Vehicle or compound at concentrations initially ranging from 20 to 0.375 μM were added to cells, followed by culture for 48 h (37° C., 5% CO2). Plates were equilibrated to rt for 15 min and CellTiter Glo reagent was added followed by orbital shaking for 2 min. After an additional incubation (rt, 10 min), luminescence was scored on a BioTek Synergy H1 microplate reader. Luminescence values were used to calculate percent cell growth inhibition (based on controls) for each concentration of compound tested. Averages of triplicates were calculated and fit to dose-response curves for the determination of EC50 values, using Prism 9.0 (GraphPad Software, San Diego, CA). […] Other controls included media alone, cells and media, and vehicle and media. For very potent compounds, concentration of reagent in the dose-response assays were reduced to provide an appropriate range for EC50 value resolution.
Compounds of the present technology were tested for growth inhibition of N. fowleri per General Procedure 13, above.

SMILES | EC50
O=c1c2cc(Cl)c(Cl)cc2nc2n1CC[C@@H]1[C@@H]2CCCN1Cc1ccc(Cl)cc1 (racemic) [Compound 7t, (±)-(4aR,13bS)-10,11-dichloro-4-(4-chlorobenzyl)-1,2,3,4,4a,5,6,13b-octahydro-8H-[1,6]naphthyridino[5,6-b]quinazolin-8-one] | > 10 µM
O=c1c2cc(Cl)c(Cl)cc2nc2n1CC[C@@H]1[C@@H]2CCCN1Cc1ccc(C(F)(F)F)cc1 (racemic) [Compound 7u, (±)-(4aR,13bS)-10,11-dichloro-4-(4-(trifluoromethyl)benzyl)-1,2,3,4,4a,5,6,13b-octahydro-8H-[1,6]naphthyridino[5,6-b]quinazolin-8-one] | > 10 µM
O=c1c2cc(Cl)c(Cl)cc2nc2n1CC[C@@H]1[C@@H]2CCCN1Cc1ccc(Cl)cc1Cl (racemic) [Compound 7v, (±)-(4aR,13bS)-10,11-dichloro-4-(2,4-dichlorobenzyl)-1,2,3,4,4a,5,6,13b-octahydro-8H-[1,6]naphthyridino[5,6-b]quinazolin-8-one] | > 10 µM
CN1CCC[C@H]2c3nc4ccccc4c(=O)n3CC[C@H]21 (racemic) [cis-5a, (±)-(4aR,13bR)-4-methyl-1,2,3,4,4a,5,6,13b-octahydro-8H-[1,6]naphthyridino[5,6-b]quinazolin-8-one] | > 10 µM
Cc1cccc2nc3n(c(=O)c12)CC[C@@H]1[C@H]3CCCN1C (racemic) [cis-5b, (±)-(4aR,13bR)-4,9-dimethyl-1,2,3,4,4a,5,6,13b-octahydro-8H-[1,6]naphthyridino[5,6-b]quinazolin-8-one] | > 10 µM
CN1CCC[C@H]2c3nc4cccc(Cl)c4c(=O)n3CC[C@H]21 (racemic) [cis-5c, (±)-(4aR,13bR)-9-chloro-4-methyl-1,2,3,4,4a,5,6,13b-octahydro-8H-[1,6]naphthyridino[5,6-b]quinazolin-8-one] | > 10 µM
CN1CC[C@H]2c3nc4ccccc4c(=O)n3CC[C@H]21 (racemic) [cis-5cc, (±)-(3aR,12bR)-3-methyl-2,3,3a,4,5,12b-hexahydropyrrolo[3′,2′:3,4]pyrido[2,1-b]quinazolin-7(1H)-one] | > 10 µM
CN1CCC[C@H]2c3nc4ccc(Cl)cc4c(=O)n3CC[C@H]21 (racemic) [cis-5d, (±)-(4aR,13bR)-10-chloro-4-methyl-1,2,3,4,4a,5,6,13b-octahydro-8H-[1,6]naphthyridino[5,6-b]quinazolin-8-one] | 1 to 10 µM
COc1cccc2c(=O)n3c(nc12)[C@@H]1CCN(C)[C@@H]1CC3 (racemic) [cis-5dd, (±)-(3aR,12bR)-11-methoxy-3-methyl-2,3,3a,4,5,12b-hexahydropyrrolo[3′,2′:3,4]pyrido[2,1-b]quinazolin-7(1H)-one] | > 10 µM
CN1CCC[C@H]2c3nc4ccc(Br)cc4c(=O)n3CC[C@H]21 (racemic) [cis-5e, (±)-(4aR,13bR)-10-bromo-4-methyl-1,2,3,4,4a,5,6,13b-octahydro-8H-[1,6]naphthyridino[5,6-b]quinazolin-8-one] | 0.1 to 1 µM
CN1CC[C@H]2c3nc4cc(F)c(F)cc4c(=O)n3CC[C@H]21 (racemic) [cis-5ee, (±)-(3aR,12bR)-9,10-difluoro-3-methyl-2,3,3a,4,5,12b-hexahydropyrrolo[3′,2′:3,4]pyrido[2,1-b]quinazolin-7(1H)-one] | > 10 µM
CN1CCC[C@H]2c3nc4ccc(F)cc4c(=O)n3CC[C@H]21 (racemic) [cis-5f, (±)-(4aR,13bR)-10-fluoro-4-methyl-1,2,3,4,4a,5,6,13b-octahydro-8H-[1,6]naphthyridino[5,6-b]quinazolin-8-one] | > 10 µM
O=c1c2ccccc2nc2n1CC[C@@H]1[C@H]2CCN1Cc1ccccc1 (racemic) [cis-5ff, (±)-(3aR,12bR)-3-benzyl-2,3,3a,4,5,12b-hexahydropyrrolo[3′,2′:3,4]pyrido[2,1-b]quinazolin-7(1H)-one] | > 10 µM
COc1ccc2nc3n(c(=O)c2c1)CC[C@@H]1[C@H]3CCCN1C (racemic) [cis-5g, (±)-(4aR,13bR)-10-methoxy-4-methyl-1,2,3,4,4a,5,6,13b-octahydro-8H-[1,6]naphthyridino[5,6-b]quinazolin-8-one] | > 10 µM
COc1cc2nc3n(c(=O)c2cc1Cl)CC[C@@H]1[C@H]3CCCN1C (racemic) [cis-5gg, (±)-(4aR,13bR)-10-chloro-11-methoxy-4-methyl-1,2,3,4,4a,5,6,13b-octahydro-8H-[1,6]naphthyridino[5,6-b]quinazolin-8-one] | 0.1 to 1 µM
Cc1ccc2nc3n(c(=O)c2c1)CC[C@@H]1[C@H]3CCCN1C (racemic) [cis-5h, (±)-(4aR,13bR)-4,10-dimethyl-1,2,3,4,4a,5,6,13b-octahydro-8H-[1,6]naphthyridino[5,6-b]quinazolin-8-one] | 1 to 10 µM

SMILES | EC50
CN1CC[C@H]2c3nc4ccc(Cl)cc4c(=O)n3CC[C@H]21 (racemic) [cis-5hh, (±)-(3aR,12bR)-9-chloro-3-methyl-2,3,3a,4,5,12b-hexahydropyrrolo[3′,2′:3,4]pyrido[2,1-b]quinazolin-7(1H)-one] | > 10 µM
CN1CCC[C@H]2c3nc4ccc(C#N)cc4c(=O)n3CC[C@H]21 (racemic) [cis-5i, (±)-(4aR,13bR)-4-methyl-8-oxo-2,3,4,4a,5,6,8,13b-octahydro-1H-[1,6]naphthyridino[5,6-b]quinazoline-10-carbonitrile] | 1 to 10 µM
CN1CCC[C@H]2c3nc4ccc(C(F)(F)F)cc4c(=O)n3CC[C@H]21 (racemic) [cis-5j, (±)-(4aR,13bR)-4-methyl-10-(trifluoromethyl)-1,2,3,4,4a,5,6,13b-octahydro-8H-[1,6]naphthyridino[5,6-b]quinazolin-8-one] | 0.1 to 1 µM
CN1CCC[C@H]2c3nc4cc(Cl)ccc4c(=O)n3CC[C@H]21 (racemic) [cis-5k, (±)-(4aR,13bR)-11-chloro-4-methyl-1,2,3,4,4a,5,6,13b-octahydro-8H-[1,6]naphthyridino[5,6-b]quinazolin-8-one] | > 10 µM
CN1CCC[C@H]2c3nc4cc(Br)ccc4c(=O)n3CC[C@H]21 (racemic) [cis-5l, (±)-(4aR,13bR)-11-bromo-4-methyl-1,2,3,4,4a,5,6,13b-octahydro-8H-[1,6]naphthyridino[5,6-b]quinazolin-8-one] | 1 to 10 µM
CN1CCC[C@H]2c3nc4cc(F)ccc4c(=O)n3CC[C@H]21 (racemic) [cis-5m, (±)-(4aR,13bR)-11-fluoro-4-methyl-1,2,3,4,4a,5,6,13b-octahydro-8H-[1,6]naphthyridino[5,6-b]quinazolin-8-one] | > 10 µM
CN1CCC[C@H]2c3nc4cc(C(F)(F)F)ccc4c(=O)n3CC[C@H]21 (racemic) [cis-5n, (±)-(4aR,13bR)-4-methyl-11-(trifluoromethyl)-1,2,3,4,4a,5,6,13b-octahydro-8H-[1,6]naphthyridino[5,6-b]quinazolin-8-one] | 1 to 10 µM
CN1CCC[C@H]2c3nc4cnccc4c(=O)n3CC[C@H]21 (racemic) [cis-5p, (±)-(4aR,13bR)-4-methyl-1,2,3,4,4a,5,6,13b-octahydro-8H-pyrido[3′,4′:4,5]pyrimido[2,1-f][1,6]naphthyridin-8-one] | > 10 µM
CN1CCC[C@H]2c3nc4cc(Cl)c(Cl)cc4c(=O)n3CC[C@H]21 (racemic) [cis-5q, (±)-(4aR,13bR)-10,11-dichloro-4-methyl-1,2,3,4,4a,5,6,13b-octahydro-8H-[1,6]naphthyridino[5,6-b]quinazolin-8-one] | 0.1 to 1 µM
COc1cc2nc3n(c(=O)c2cc1OC)CC[C@@H]1[C@H]3CCCN1C (racemic) [cis-5r, (±)-(4aR,13bR)-10,11-dimethoxy-4-methyl-1,2,3,4,4a,5,6,13b-octahydro-8H-[1,6]naphthyridino[5,6-b]quinazolin-8-one] | > 10 µM
CN1CCC[C@H]2c3nc4cc(Cl)c(C(F)(F)F)cc4c(=O)n3CC[C@H]21 (racemic) [cis-5s, (±)-(4aR,13bR)-11-chloro-4-methyl-10-(trifluoromethyl)-1,2,3,4,4a,5,6,13b-octahydro-8H-[1,6]naphthyridino[5,6-b]quinazolin-8-one] | 0.1 to 1 µM
COc1cc(Cl)cc2c(=O)n3c(nc12)[C@@H]1CCCN(C)[C@@H]1CC3 (racemic) [cis-5t, (±)-(4aR,13bR)-10-chloro-12-methoxy-4-methyl-1,2,3,4,4a,5,6,13b-octahydro-8H-[1,6]naphthyridino[5,6-b]quinazolin-8-one] | > 10 µM
CN1CCO[C@H]2c3nc4ccccc4c(=O)n3CC[C@H]21 (racemic) [cis-5v, (±)-(4aR,13bR)-4-methyl-3,4,4a,5,6,13b-hexahydro-[1,4]oxazino[2′,3′:3,4]pyrido[2,1-b]quinazolin-8(2H)-one] | > 10 µM
CN1CCO[C@H]2c3nc4ccc(Cl)cc4c(=O)n3CC[C@H]21 (racemic) [cis-5w, (±)-(4aR,13bR)-10-chloro-4-methyl-3,4,4a,5,6,13b-hexahydro-[1,4]oxazino[2′,3′:3,4]pyrido[2,1-b]quinazolin-8(2H)-one] | > 10 µM
CN1CCO[C@H]2c3nc4ccc(C(F)(F)F)cc4c(=O)n3CC[C@H]21 (racemic) [cis-5x, (±)-(4aR,13bR)-4-methyl-10-(trifluoromethyl)-3,4,4a,5,6,13b-hexahydro-[1,4]oxazino[2′,3′:3,4]pyrido[2,1-b]quinazolin-8(2H)-one] | > 10 µM
